Results: US20240190893A1, “MACROCYCLIC 1,3-BRIDGED 6-CHLORO-7-PYRAZOL-4-YL-1 H-INDOLE-2-CARBOXYLATE AND 6-CHLORO-7-PYRIMIDIN-5-YL-1H-INDOLE-2-CARBOXYLATE DERIVATIVES AS MCL-1 INHIBITORS FOR THE TREATMENT OF CANCER” (JANSSEN PHARMACEUTICA NV, priority 2021, published 2024)

How the values were obtained:
[1] = biological target: Myeloid Cell Leukemia 1 (Mcl-1) (Homo sapiens (Human), UniProt Q07820); experiment: Terbium labeled Mcl-1 HTRF binding assay with Cy5-labeled BIM BH3 peptide; conditions: Tb-Mcl-1 25 pM, Cy5 Bim peptide 8 nM; Ki=IC50/(1+[L]/Kd), [L]=8 nM, Kd=10 nM
Experimental: Terbium labeled Myeloid Cell Leukemia 1 (Mcl-1) homogeneous time-resolved fluorescence (HTRF) binding assay utilizing the BIM BH3 peptide (H2N—(C/Cy5Mal) WIAQELRRIGDEFN-OH) as the binding partner for Mcl-1.
This assay evaluated inhibition of the BH3 domain: Mcl-1 interaction by measuring the displacement of Cy5-labeled BIM BH3 peptide (H2N—(C/Cy5Mal) WIAQELRRIGDEFN-OH) in the HTRF assay format.
The following assay and stock buffers were prepared for use in the assay: (a) Stock buffer: 10 mM Tris-HCl, pH=7.5+150 mM NaCl, filtered, sterilized, and stored at 4° C.; and (b) 1× assay buffer, where the following ingredients were added fresh to stock buffer: 2 mM dithiothreitol (DTT), 0.0025% Tween-20, 0.1 mg/mL bovine serum albumin (BSA). The 1×Tb-Mcl-1+Cy5 Bim peptide solution was prepared by diluting the protein stock solution using the 1× assay buffer (b) to 25 pM Tb-Mcl-1 and 8 nM Cy5 Bim peptide.
Using the Acoustic ECHO, 100 nL of 100× test compound(s) were dispensed into individual wells of a white 384-well Perkin Elmer Proxiplate, for a final compound concentration of 1× and final DMSO concentration of 1%. Inhibitor control and neutral control (NC, 100 nL of 100% DMSO) were stamped into columns 23 and 24 of assay plate, respectively. Into each well of the plate was then dispensed 10 μL of the 1×Tb-Mcl-1+Cy5 Bim peptide solution. The plate was centrifuged with a cover plate at 1000 rpm for 1 minute, then incubated for 60 minutes at room temperature with plates covered.
The TR-FRET signal was read on an BMG PHERAStar FSX MicroPlate Reader at room temperature using the HTRF optic module (HTRF: excitation: 337 nm, light source: laser, emission A: 665 nm, emission B: 620 nm, integration start: 60 μs, integration time: 400 μs).
The BMG PHERAStar FSX MicroPlate Reader was used to measure fluorescence intensity at two emission wavelengths—665 nm and 620 nm—and report relative fluorescence units (RFU) for both emissions, as well as a ratio of the emissions (665 nm/620 nm)*10,000. The RFU values were normalized to percent inhibition as follows:
% inhibition=(((NC−IC)−(compound−IC))/(NC−IC))*100
where IC (inhibitor control, low signal)=mean signal of 1×Tb-MCl-1+Cy5 Bim peptide+ inhibitor control or 100% inhibition of Mcl-1; NC (neutral control, high signal)=mean signal 1×Tb-MCl-1+Cy5 Bim peptide with DMSO only or 0% inhibition
An 11-point dose response curve was generated to determine IC50 values (using GenData) based on the following equation:
Y=Bottom+(Top−Bottom)/(1+10^((log IC50−X)*HillSlope))
where Y=% inhibition in the presence of X inhibitor concentration; Top=100% inhibition derived from the IC (mean signal of Mcl-1+inhibitor control); Bottom=0% inhibition derived from the NC (mean signal of Mcl-1+DMSO); Hillslope=Hill coefficient; and IC50=concentration of compound with 50% inhibition in relation to top/neutral control (NC).
In this assay [L]=8 nM and Kd=10 nM
Representative compounds of the present invention were tested according to the procedure as described above, with results as listed in the Table below (n.d. means not determined).

[2] = tested on: MOLP-8 human multiple myeloma cell line; experiment: Caspase-Glo 3/7 apoptosis induction assay in MOLP-8 cells; assay type: cell-based; conditions: MOLP8 cells, 2 hours at 37° C., averaged over all runs on all batches
Excerpt: MCL-1 is a regulator of apoptosis and is highly over-expressed in tumor cells that escape cell death. The assay evaluates the cellular potency of small-molecule compounds targeting regulators of the apoptosis pathway, primarily MCL-1, Bfl-1, Bcl-2, and other proteins of the Bcl-2 family. Protein-protein inhibitors disrupting the interaction of anti-apoptotic regulators with BH3-domain proteins initiate apoptosis.
The Caspase-Glo® 3/7 Assay is a luminescent assay that measures caspase-3 and -7 activities in purified enzyme preparations or cultures of adherent or suspension cells. The assay provides a proluminescent caspase-3/7 substrate, which contains the tetrapeptide sequence DEVD. This substrate is cleaved to release aminoluciferin, a substrate of luciferase used in the production of light. Addition of the single Caspase-Glo® 3/7 Reagent in an “add-mix-measure” format results in cell lysis, followed by caspase cleavage of the substrate and generation of a “glow-type” luminescent signal.
This assay uses the MOLP-8 human multiple myeloma cell line, which is sensitive to MCL-1 inhibition.
Cell cultures were maintained between 0.2 and 2.0×10^6 cells/mL. The cells were harvested by collection in 50 mL conical tubes. The cells were then pelleted at 500 g for 5 mins before removing supernatant and resuspension in fresh pre-warmed culture medium. The cells were counted and diluted as needed.
The assay reagent was prepared by transferring the buffer solution to the substrate vial and mixing. The solution may be stored for up to 1 week at 4° C. with negligible loss of signal.
Compounds were delivered in assay-ready plates (Proxiplate) and stored at −20° C.
Assays always include 1 reference compound plate containing reference compounds. The plates were spotted with 40 nL of compounds (0.5% DMSO final in cells; serial dilution; 30 μM highest conc. 1/3 dilution, 10 doses, duplicates). The compounds were used at room temperature and 4 μL of pre-warmed media was added to all wells except column 2 and 23. The negative control was prepared by adding 1% DMSO in media. The positive control was prepared by adding the appropriate positive control compound in final concentration of 60 μM in media. The plate was prepared by adding 4 μL negative control to column 23, 4 μL positive control to column 2 and 4 μL cell suspension to all wells in the plate. The plate with cells was then incubated at 37° C. for 2 hours. The assay signal reagent is the Caspase-Glo solution described above, and 8 μL was added to all wells. The plates were then sealed and measured after 30 minutes.
The activity of a test compound was calculated as percent change in apoptosis induction as follows:
LC=median of the Low Control values
HC=Median of the High Control values
=30 μM of positive control
=100% apoptosis induction
% Effect (AC50)=100−((sample−LC)/(HC−LC))*100
% Control=(sample/HC)*100
% Control min=((sample−LC)/(HC−LC))*100

Sequence of Myeloid Cell Leukemia 1 (Mcl-1) (Q07820 whole entry): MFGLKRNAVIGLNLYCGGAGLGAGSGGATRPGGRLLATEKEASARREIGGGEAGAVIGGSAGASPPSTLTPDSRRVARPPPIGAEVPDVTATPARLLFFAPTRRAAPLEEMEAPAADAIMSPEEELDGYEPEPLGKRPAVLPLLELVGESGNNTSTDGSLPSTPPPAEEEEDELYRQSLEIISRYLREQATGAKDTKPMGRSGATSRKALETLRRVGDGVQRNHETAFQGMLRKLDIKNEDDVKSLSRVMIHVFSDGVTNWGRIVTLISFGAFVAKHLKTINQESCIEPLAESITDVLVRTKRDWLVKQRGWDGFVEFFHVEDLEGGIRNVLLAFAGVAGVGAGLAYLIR

Compound `COCCOCc1nn(C)c(C)c1-c1c(Cl)ccc2c3c(C(=O)O)n(c12)CCCSCc1cc(n(C)n1)CCc1cc(c2ccc(F)cc2c1)OCCC3` (single isomer, unassigned) [Compound 21] has a Ki [1] of 0.155 nM and an AC50 [2] of 1010 nM.
With `Cn1nc2cc1CCc1cc(c3ccc(F)cc3c1)OCCCc1c(C(=O)O)n(c3c(-c4cncnc4)c(Cl)ccc13)CCC[S+]([O-])C2` (stereo not drawn) [Compound 15] the Ki [1] was 0.426 nM.
`Cc1nn(C)c(C)c1-c1c(Cl)ccc2c3c(C(=O)O)n(c12)CCCS(=O)(=O)Cc1cc(n(C)n1)CCc1cc(c2ccc(F)cc2c1)OCCC3` (single isomer, unassigned) [Compound 5] gave a Ki [1] of 0.276 nM and an AC50 [2] of 7270 nM.
`Cc1nn(C)c(C)c1-c1c(Cl)ccc2c3c(C(=O)O)n(c12)CCCSCc1cc(n(C)n1)CSc1cc(c2ccccc2c1)OCCC3` [Compound 18] gave an AC50 [2] of 3640 nM.
`Cc1nn(C)c(C)c1-c1c(Cl)ccc2c3c(C(=O)O)n(c12)CCSCc1cc(n(C)n1)CCc1cc(c2ccccc2c1)OCCC3` (single isomer, unassigned) [Compound 11] showed a Ki [1] of 0.307 nM and an AC50 ([2]; Homo sapiens, MOLP-8, 2 h) of 1460 nM.
In the case of `Cn1cc(-c2c(Cl)ccc3c4c(C(=O)O)n(c23)CCCSCc2cc(n(C)n2)CCc2cc(c3ccc(F)cc3c2)OCCC4)cn1` [Compound 8], the Ki [1] is reported as 0.977 nM and the AC50 ([2]; Homo sapiens, MOLP-8, 2 h) is reported as 1340 nM.
`Cc1c(-c2c(Cl)ccc3c4c(C(=O)O)n(c23)CCCSCc2cc(n(C)n2)CCc2cc(c3ccc(F)cc3c2)OCCC4)c(CO)nn1C` (single isomer, unassigned) [Compound 17] gave a Ki [1] of 0.08 nM and an AC50 [2] of 1830 nM.
With `Cc1nn(C)c(C)c1-c1c(Cl)ccc2c3c(C(=O)O)n(c12)CCSCc1cc(n(C)n1)CCc1cc(c2ccccc2c1)OCCC3` (single isomer, unassigned) [Compound 12] the Ki [1] was 0.396 nM and the AC50 [2] was 1350 nM.
`Cc1nn(C)c(C)c1-c1c(Cl)ccc2c3c(C(=O)O)n(c12)CCSCc1cc(n(C)n1)CSc1cc(c2ccccc2c1)OCCC3` (single isomer, unassigned) [Compound 13] showed a Ki [1] of 0.392 nM and an AC50 ([2]; Homo sapiens, MOLP-8, 2 h) of 1340 nM.
Work on `Cc1nn(C)c(C)c1-c1c(Cl)ccc2c3c(C(=O)O)n(c12)CCCSCc1cc(n(C)n1)CCc1cc(c2ccc(F)cc2c1)OCCC3` [Compound 1] yielded a Ki [1] of 0.126 nM and an AC50 ([2]; Homo sapiens, MOLP-8, 2 h) of 90.5 nM.
In the case of `COCCOCc1nn(C)c(C)c1-c1c(Cl)ccc2c3c(C(=O)O)n(c12)CCCSCc1cc(n(C)n1)CCc1cc(c2ccc(F)cc2c1)OCCC3` (single isomer, unassigned) [Compound 20], the Ki [1] is reported as 0.073 nM and the AC50 [2] is reported as 173 nM.
Work on `Cc1nn(C)c(C)c1-c1c(Cl)ccc2c3c(C(=O)O)n(c12)CCSCc1cc(n(C)n1)CSc1cc(c2ccccc2c1)OCCC3` (single isomer, unassigned) [Compound 14] yielded a Ki [1] of 0.423 nM and an AC50 [2] of 1540 nM.
For `COCCn1nc(C)c(-c2c(Cl)ccc3c4c(C(=O)O)n(c23)CCCSCc2cc(n(C)n2)CCc2cc(c3ccc(F)cc3c2)OCCC4)c1C` (single isomer, unassigned) [Compound 10], the Ki [1] was 0.093 nM and the AC50 [2] was 160 nM.
`Cc1c(-c2c(Cl)ccc3c4c(C(=O)O)n(c23)CCCSCc2cc(n(C)n2)CCc2cc(c3ccc(F)cc3c2)OCCC4)c(CO)nn1C` (single isomer, unassigned) [Compound 16] gave a Ki [1] of 0.056 nM and an AC50 [2] of 414 nM.
Compound `COCCn1nc(C)c(-c2c(Cl)ccc3c4c(C(=O)O)n(c23)CCCSCc2cc(n(C)n2)CCc2cc(c3ccc(F)cc3c2)OCCC4)c1C` (single isomer, unassigned) [Compound 9] has a Ki [1] of 0.139 nM and an AC50 ([2]; Homo sapiens, MOLP-8, 2 h) of 232 nM.
Compound `Cc1nn(C)c(C)c1-c1c(Cl)ccc2c3c(C(=O)O)n(c12)CCCSCc1cc(n(C)n1)CSc1cc(c2ccccc2c1)OCCC3` [Compound 19] has an AC50 [2] of 740 nM.
`Cc1nn(C)c(C)c1-c1c(Cl)ccc2c3c(C(=O)O)n(c12)CCSCc1cc(n(C)n1)CCc1cc(c2ccc(F)cc2c1)OCCC3` (single isomer, unassigned) [Compound 7] gave a Ki [1] of 0.086 nM and an AC50 [2] of 231 nM.
In the case of `Cc1nn(C)c(C)c1-c1c(Cl)ccc2c3c(C(=O)O)n(c12)CCSCc1cc(n(C)n1)CCc1cc(c2ccc(F)cc2c1)OCCC3` (single isomer, unassigned) [Compound 6], the Ki [1] is reported as 0.056 nM and the AC50 ([2]; Homo sapiens, MOLP-8, 2 h) is reported as 237 nM.
For `Cc1nn(C)c(C)c1-c1c(Cl)ccc2c3c(C(=O)O)n(c12)CCCSCc1cc(n(C)n1)CCc1cc(c2ccc(F)cc2c1)OCCC3` (single isomer, unassigned) [Compound 3], the Ki [1] was 0.133 nM and the AC50 [2] was 207 nM.
For `Cc1nn(C)c(C)c1-c1c(Cl)ccc2c3c(C(=O)O)n(c12)CCCSCc1cc(n(C)n1)CCc1cc(c2ccc(F)cc2c1)OCCC3` (single isomer, unassigned) [Compound 2], the Ki [1] was 0.084 nM and the AC50 ([2]; Homo sapiens, MOLP-8, 2 h) was 130 nM.
For `Cc1nn(C)c(C)c1-c1c(Cl)ccc2c3c(C(=O)O)n(c12)CCCS(=O)(=O)Cc1cc(n(C)n1)CCc1cc(c2ccc(F)cc2c1)OCCC3` (single isomer, unassigned) [Compound 4], the Ki [1] was 0.251 nM and the AC50 ([2]; Homo sapiens, MOLP-8, 2 h) was 7030 nM.
